Values joined by “and” are separate entries in the source; they are usually repeats but may differ in a detail not shown here. Identical values can stand only once.

This assay concerns 521955-158-R2-J5-PDC complex spheroid growth, % test/control. Briefly: Anticancer human tumor 521955-158-R2-J5-PDC patient-derived pancreatic carcinoma cell line growth inhibition [Asc]. Conditions: for viability, T/C: stronger effect = lower value. In short, it runs like this:
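Spheroid model: tumor line + HUVEC + hMSC. Single agents and combinations; top conc. at/near clinical Cmax (10 microM if undetermined), half-log dilutions. DMSO stocks at 800-fold test concentration.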
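Note: spheroids exposed to agents for 7 days before readout.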
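Throughout, for viability, T/C: 100% = DMSO vehicle control viability.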

For orientation: IC50 means the concentration at which inhibition is half-maximal. One may read the viability, T/C as the result in the treated group divided by that in the control group, in per cent. On to `Cc1nc(N2CCC3(CC2)COC(C)C3N)c(CO)nc1Sc1ccnc(N)c1Cl` (stereo not drawn) + CNC(C)C(=O)NC1CN(S(=O)(=O)c2cccc(S(=O)(=O)N3CCC4CCC(C(=O)NC(c5ccccc5)c5ccccc5)N4C(=O)C(NC(=O)C(C)NC)C3)c2)CCC2CCC(C(=O)NC(c3ccccc3)c3ccccc3)N2C1=O, for which the IC50 was 613 nM (curve of first compound, second compound 0.01 µM); 888 nM (curve of first compound, second compound 0.0316 µM); 271 nM (curve of first compound, second compound 0.1 µM); greater than 3000 nM (curve of first compound, second compound 0.316 µM); 1480 nM (curve of first compound, second compound 1 µM). The viability, T/C (second compound 0.01 µM, first compound 0.00949 µM) was 86.7%; the viability, T/C (second compound 0.01 µM, first compound 0.03 µM) was 67.7%; the viability, T/C (second compound 0.01 µM, first compound 0.0949 µM) was 64.6%; the viability, T/C (second compound 0.01 µM, first compound 0.3 µM) is 49%; the viability, T/C (second compound 0.01 µM, first compound 0.949 µM) is 48.9%; the viability, T/C (second compound 0.01 µM, first compound 3 µM) is 46.2%. Moreover, the viability, T/C is 83.6% (second compound 0.0316 µM, first compound 0.00949 µM); 72% (second compound 0.0316 µM, first compound 0.03 µM); 66.7% (second compound 0.0316 µM, first compound 0.0949 µM); 46% (second compound 0.0316 µM, first compound 0.3 µM); 50.4% (second compound 0.0316 µM, first compound 0.949 µM); 52.6% (second compound 0.0316 µM, first compound 3 µM). For the same compound, the viability, T/C by setting is: (second compound 0.1 µM, first compound 0.00949 µM) 84.3%; (second compound 0.1 µM, first compound 0.03 µM) 68.1%; (second compound 0.1 µM, first compound 0.0949 µM) 58.9%; (second compound 0.1 µM, first compound 0.3 µM) 43%; (second compound 0.1 µM, first compound 0.949 µM) 52.1%; (second compound 0.1 µM, first compound 3 µM) 46.9%. Moreover, the viability, T/C is 93.3% (second compound 0.316 µM, first compound 0.00949 µM); 65.3% (second compound 0.316 µM, first compound 0.03 µM); 64.4% (second compound 0.316 µM, first compound 0.0949 µM); 51.9% (second compound 0.316 µM, first compound 0.3 µM); 53.9% (second compound 0.316 µM, first compound 0.949 µM); 51.6% (second compound 0.316 µM, first compound 3 µM). Moreover, the viability, T/C is 76.7% (second compound 1 µM, first compound 0.00949 µM); 59.3% (second compound 1 µM, first compound 0.03 µM); 62.2% (second compound 1 µM, first compound 0.0949 µM); 50.9% (second compound 1 µM, first compound 0.3 µM); 57.2% (second compound 1 µM, first compound 0.949 µM); 45% (second compound 1 µM, first compound 3 µM).

`O=C(c1cc(Cc2n[nH]c(=O)c3ccccc23)ccc1F)N1CCN(C(=O)C2CC2)CC1`: the viability, T/C (compound 0.0316 µM) is 80.7% and 80% and 97.9%; the viability, T/C (compound 0.1 µM) was 79.6% and 89.4% and 92.2%; the viability, T/C (compound 0.316 µM) is 71.8% and 89.7% and 84.1%; the viability, T/C (compound 1 µM) is 62.2% and 88.6% and 85.9%; the viability, T/C (compound 3.16 µM) is 76.3% and 93.4% and 74.3%; the viability, T/C (compound 10 µM) is 60.8% and 63.9% and 61.5%. Further, the concentration for half-maximal inhibition (IC50) (curve of compound) is greater than 10000 nM.

For `O=C(c1ccc(F)c(F)c1Nc1ccc(I)cc1F)N1CC(O)([C@@H]2CCCCN2)C1`, the viability, T/C is 73.4% and 81.6% and 64.9% (compound 0.00316 µM); 73.2% and 72.4% and 79.1% (compound 0.01 µM); 61.1% and 71.3% and 49.6% (compound 0.0316 µM); 47.8% and 51.4% and 31% (compound 0.1 µM); 41.1% and 47.1% and 32.3% (compound 0.316 µM); 33.1% and 31.4% and 26% (compound 1 µM). Besides, the IC50 (curve of compound) was 90.2 nM and 184 nM and 30.9 nM.

As for `NC(=O)C(=Cn1cnc(-c2cc(C(F)(F)F)cc(C(F)(F)F)c2)n1)c1cncnc1` + CCN1C(C(=O)NC23CCC(C(=O)O)(CC2)CC3)C(c2cccc(Cl)c2F)C2(C(=O)Nc3cc(Cl)ccc32)C12CCCCC2, the half-maximal inhibitory concentration (IC50) (curve of first compound, second compound 0.03 µM) was 6.31 nM; the IC50 (curve of first compound, second compound 0.0949 µM) was found to be 2.84 nM; the 50% inhibitory concentration (IC50) (curve of first compound, second compound 0.3 µM) was found to be 5.68 nM; the IC50 (curve of first compound, second compound 0.949 µM) came out at 6.71 nM; the IC50 (curve of first compound, second compound 3 µM) turned out to be 10.1 nM. Further, the viability, T/C is 57.6% (second compound 0.03 µM, first compound 0.000949 µM); 62.8% (second compound 0.03 µM, first compound 0.003 µM); 44.4% (second compound 0.03 µM, first compound 0.00949 µM); 34.9% (second compound 0.03 µM, first compound 0.03 µM); 30.7% (second compound 0.03 µM, first compound 0.0949 µM); 38.5% (second compound 0.03 µM, first compound 0.3 µM). For the same compound, the viability, T/C (second compound 0.0949 µM, first compound 0.000949 µM) is 103%; the viability, T/C (second compound 0.0949 µM, first compound 0.003 µM) is 45.5%; the viability, T/C (second compound 0.0949 µM, first compound 0.00949 µM) was 47.2%; the viability, T/C (second compound 0.0949 µM, first compound 0.03 µM) was 41.7%; the viability, T/C (second compound 0.0949 µM, first compound 0.0949 µM) was 33%; the viability, T/C (second compound 0.0949 µM, first compound 0.3 µM) is 36.2%. In addition, the viability, T/C by setting is: (second compound 0.3 µM, first compound 0.000949 µM) 76.5%; (second compound 0.3 µM, first compound 0.003 µM) 51.3%; (second compound 0.3 µM, first compound 0.00949 µM) 50.5%; (second compound 0.3 µM, first compound 0.03 µM) 38.3%; (second compound 0.3 µM, first compound 0.0949 µM) 33.6%; (second compound 0.3 µM, first compound 0.3 µM) 32.8%. Further, the viability, T/C was 94.2% (second compound 0.949 µM, first compound 0.000949 µM); 58.1% (second compound 0.949 µM, first compound 0.003 µM); 47.9% (second compound 0.949 µM, first compound 0.00949 µM); 42% (second compound 0.949 µM, first compound 0.03 µM); 35.7% (second compound 0.949 µM, first compound 0.0949 µM); 43.8% (second compound 0.949 µM, first compound 0.3 µM). Moreover, the viability, T/C reads like this: (second compound 3 µM, first compound 0.000949 µM) 109%; (second compound 3 µM, first compound 0.003 µM) 75.6%; (second compound 3 µM, first compound 0.00949 µM) 53.1%; (second compound 3 µM, first compound 0.03 µM) 34.5%; (second compound 3 µM, first compound 0.0949 µM) 49.9%; (second compound 3 µM, first compound 0.3 µM) 45.4%.

With `NC(=O)C(=Cn1cnc(-c2cc(C(F)(F)F)cc(C(F)(F)F)c2)n1)c1cncnc1`, the viability, T/C (compound 0.000949 µM) is 68.4% and 84.3% and 83.5%; the viability, T/C (compound 0.003 µM) is 42.6% and 54.8% and 95.5%; the viability, T/C (compound 0.00949 µM) was 37.3% and 48.3% and 47.9%; the viability, T/C (compound 0.03 µM) was 28.6% and 36.7% and 57.8%; the viability, T/C (compound 0.0949 µM) was 27.8% and 32.6% and 43.7%; the viability, T/C (compound 0.3 µM) was 23.8% and 48% and 30.4%.

With `CCN1C(C(=O)NC23CCC(C(=O)O)(CC2)CC3)C(c2cccc(Cl)c2F)C2(C(=O)Nc3cc(Cl)ccc32)C12CCCCC2` (stereo not drawn), the viability, T/C (compound 0.00949 µM) was 94.9% and 87.6%. The 50% inhibitory concentration (IC50) reads like this: (compound alone, run of 09/27/2022) greater than 3000 nM; (curve of compound) greater than 3000 nM.

The values are drawn from PubChem BioAssay AID1963430 (Molecular Pharmacology Branch, DTP, NCI, 2024).
